Literature values, collected in patent publication US9265822B2 (priority 2009, dated 2016).

Tested on: American isolates of H3N2

Compound	measured resistance [%]
NC12CC3CC(CC(C3)C1)C2 [amantadine]	91
CC(N)C12CC3CC(CC(C3)C1)C2 (centres unmarked) [rimantadine]	91
